Legend:
tumor-bearing mice = test: SPECT imaging in tumor-bearing mice; assay type: in vivo; settings: 0.2 mL, 700 μCi tail vein, imaging 1 hour later
Experimental: The prepared [^99mTc-(CN3DG)6]^+ or [^99mTc-(CN5DG)6]^+ (0.2 mL, 700 μCi) is injected into tumor-bearing mice through tail vein, and SPECT imaging is performed 1 hour later.

S180-bearing mice = test: Bio-distribution in tumor-bearing mice; assay type: in vivo; settings: for Blood uptake / Bone uptake / Heart uptake / Kidney uptake / Liver uptake / Lung uptake / Muscle uptake / Small intestine uptake / Spleen uptake / Stomach uptake / Tumor uptake / Tumor/blood ratio / Tumor/muscle ratio: S180-bearing mice, tail vein
Experimental: The labeled solution (0.1 mL, 74 KBq) is injected into mice through the tail vein, and the injection time is recorded. Then the mice were killed by cervical dislocation at different time phases (30 minutes, 60 minutes, and 120 minutes), five mice for each time phase, and the organs of interest such as heart, liver, lung, kidney, spleen, stomach, muscle, blood and tumor are taken out after dissection, and measured with a γ-counter for the radioactive count of each organ. The uptake value of each organ is obtained by calculation based on the mass of the organ (with % ID/g as the unit).

[1] = Determination of the lipid-water partition coefficient (n-octanol/PBS); assay type: physicochemical
Experimental: One hundred μL of the labeled substance solution (50 μCi) diluted with normal saline is placed into a 2 mL centrifuge tube, and then 800 μL of n-octanol and 700 μL of PBS are added to the centrifuge tube, which is subsequently covered with a cap. The centrifuge tube is vortexed for 3 minutes (2500 r/minute), allowed to stand until the solution is layered, and centrifuged in a centrifuge for 3 minutes (3000 r/minute). Three samples of the upper organic phase and three samples of the lower aqueous phase are taken, each 100 μL, and detected in a γ-counter for the radioactive counts of the organic and aqueous phases, respectively.

O=C(CCCCC[N+]#[C][99Tc-5]([C]#[N+]CCCCCC(=O)NC1C(O)OC(CO)C(O)C1O)([C]#[N+]CCCCCC(=O)NC1C(O)OC(CO)C(O)C1O)([C]#[N+]CCCCCC(=O)NC1C(O)OC(CO)C(O)C1O)([C]#[N+]CCCCCC(=O)NC1C(O)OC(CO)C(O)C1O)[C]#[N+]CCCCCC(=O)NC1C(O)OC(CO)C(O)C1O)NC1C(O)OC(CO)C(O)C1O (centres unmarked) [[^99mTc-(CN5DG)6]^+]
SPECT imaging: aggregation at the tumor sites (tumor-bearing mice): evident aggregation at the tumor sites
SPECT imaging: concentration in kidney (tumor-bearing mice): relatively high concentration in kidney
SPECT imaging: uptake in other organs (tumor-bearing mice): relatively low
Blood uptake (S180-bearing mice; 30 min): 1.58 ± 0.15 % ID/g
Bone uptake (S180-bearing mice; 30 min): 0.72 ± 0.11 % ID/g
Heart uptake (S180-bearing mice; 30 min): 0.64 ± 0.12 % ID/g
Kidney uptake (S180-bearing mice; 30 min): 4.69 ± 0.76 % ID/g
Liver uptake (S180-bearing mice; 30 min): 0.61 ± 0.07 % ID/g
Lung uptake (S180-bearing mice; 30 min): 1.58 ± 0.18 % ID/g
Muscle uptake (S180-bearing mice; 30 min): 0.46 ± 0.05 % ID/g
Small intestine uptake (S180-bearing mice; 30 min): 0.74 ± 0.09 % ID/g
Spleen uptake (S180-bearing mice; 30 min): 0.51 ± 0.08 % ID/g
Stomach uptake (S180-bearing mice; 30 min): 0.50 ± 0.09 % ID/g
Tumor uptake (S180-bearing mice; 30 min): 1.83 ± 0.18 % ID/g
Tumor/blood ratio (S180-bearing mice; 30 min): 1.16
Tumor/muscle ratio (S180-bearing mice; 30 min): 3.98
Blood uptake (S180-bearing mice; 60 min): 0.55 ± 0.17 % ID/g
Bone uptake (S180-bearing mice; 60 min): 0.41 ± 0.15 % ID/g
Heart uptake (S180-bearing mice; 60 min): 0.41 ± 0.02 % ID/g
Kidney uptake (S180-bearing mice; 60 min): 2.68 ± 0.32 % ID/g
Liver uptake (S180-bearing mice; 60 min): 0.38 ± 0.08 % ID/g
Lung uptake (S180-bearing mice; 60 min): 0.59 ± 0.16 % ID/g
Muscle uptake (S180-bearing mice; 60 min): 0.27 ± 0.10 % ID/g
Small intestine uptake (S180-bearing mice; 60 min): 0.43 ± 0.07 % ID/g
Spleen uptake (S180-bearing mice; 60 min): 0.28 ± 0.07 % ID/g
Stomach uptake (S180-bearing mice; 60 min): 0.37 ± 0.14 % ID/g
Tumor uptake (S180-bearing mice; 60 min): 1.07 ± 0.21 % ID/g
Tumor/blood ratio (S180-bearing mice; 60 min): 1.94
Tumor/muscle ratio (S180-bearing mice; 60 min): 3.96
Blood uptake (S180-bearing mice; 120 min): 0.16 ± 0.02 % ID/g
Bone uptake (S180-bearing mice; 120 min): 0.15 ± 0.04 % ID/g
Heart uptake (S180-bearing mice; 120 min): 0.22 ± 0.04 % ID/g
Kidney uptake (S180-bearing mice; 120 min): 2.07 ± 0.13 % ID/g
Liver uptake (S180-bearing mice; 120 min): 0.34 ± 0.08 % ID/g
Lung uptake (S180-bearing mice; 120 min): 0.29 ± 0.06 % ID/g
Muscle uptake (S180-bearing mice; 120 min): 0.18 ± 0.03 % ID/g
Small intestine uptake (S180-bearing mice; 120 min): 0.22 ± 0.08 % ID/g
Spleen uptake (S180-bearing mice; 120 min): 0.17 ± 0.02 % ID/g
Stomach uptake (S180-bearing mice; 120 min): 0.35 ± 0.06 % ID/g
Tumor uptake (S180-bearing mice; 120 min): 0.75 ± 0.07 % ID/g
Tumor/blood ratio (S180-bearing mice; 120 min): 4.69
Tumor/muscle ratio (S180-bearing mice; 120 min): 4.16
Tumor/liver ratio (S180-bearing mice; tumor-bearing mice, 0.5 hour after injection): 3.00
Log P (lipid-water partition coefficient) [1]: −3.57±0.35
